Consider 7 molecules from paper PMC7856178 (Archives of biochemistry and biophysics, 2020).

pKd: −log10 of the molar value. Where “and” joins values, the source holds several entries; their conditions need not be identical. Identical values can stand only once. Like-named read-outs stand apart in the source and are kept apart here.

Data set [1] addresses CYP2E1 (Homo sapiens, UniProt P05181). It counts as binding.
Data set [2] concerns the target T1, CYP3A4 (Homo sapiens, UniProt P08684). It counts as binding. As to conditions: SS(3A4) in the presence of 25 μM ANF.
Target sequence in this assay (P08684 2-503 limits assumed): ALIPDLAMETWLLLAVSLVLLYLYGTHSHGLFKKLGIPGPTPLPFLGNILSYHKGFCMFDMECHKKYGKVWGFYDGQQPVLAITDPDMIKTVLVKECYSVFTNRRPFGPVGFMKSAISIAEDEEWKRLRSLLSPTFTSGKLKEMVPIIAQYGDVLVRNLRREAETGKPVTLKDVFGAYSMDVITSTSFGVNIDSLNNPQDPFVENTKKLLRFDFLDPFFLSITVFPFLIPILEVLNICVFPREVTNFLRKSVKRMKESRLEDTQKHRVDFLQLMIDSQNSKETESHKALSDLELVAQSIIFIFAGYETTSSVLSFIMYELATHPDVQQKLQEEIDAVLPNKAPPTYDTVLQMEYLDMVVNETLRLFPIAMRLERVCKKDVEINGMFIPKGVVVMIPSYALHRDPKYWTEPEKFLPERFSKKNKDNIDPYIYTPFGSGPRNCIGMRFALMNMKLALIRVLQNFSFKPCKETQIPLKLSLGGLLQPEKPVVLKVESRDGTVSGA
Data set [3] addresses T1, CYP3A4. The data set can be described thus: Fluorimetric assay of BQ debenzylation in intact and CYP2E1-enriched HLM.
Target sequence in this assay (P08684 whole entry): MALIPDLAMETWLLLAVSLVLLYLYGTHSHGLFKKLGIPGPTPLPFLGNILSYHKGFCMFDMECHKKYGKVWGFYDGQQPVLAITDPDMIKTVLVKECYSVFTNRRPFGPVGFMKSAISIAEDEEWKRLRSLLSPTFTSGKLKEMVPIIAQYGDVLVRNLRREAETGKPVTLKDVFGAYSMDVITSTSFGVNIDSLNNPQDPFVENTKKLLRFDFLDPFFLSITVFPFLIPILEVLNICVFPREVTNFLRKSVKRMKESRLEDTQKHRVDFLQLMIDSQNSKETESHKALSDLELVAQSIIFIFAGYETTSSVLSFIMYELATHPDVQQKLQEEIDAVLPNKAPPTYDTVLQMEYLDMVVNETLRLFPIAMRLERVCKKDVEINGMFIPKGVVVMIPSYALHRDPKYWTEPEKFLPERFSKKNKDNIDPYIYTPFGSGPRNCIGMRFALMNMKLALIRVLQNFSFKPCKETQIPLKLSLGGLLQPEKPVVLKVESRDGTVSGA
Data set [4] deals with CYP2C19. The conditions noted are these: cited from earlier work.
The test system of data set [5] is CYP1A2. As to conditions: cited from earlier work.
Data set [6] has as its system CYP3A5. As to conditions: cited from earlier work.
Data set [7] relates to CYP2E1. As to conditions: cited from earlier work.
The target in data set [8] is T1, CYP3A4. The data set can be described thus: Rate of midazolam hydroxylation by pooled HLM. The conditions noted are these: 100 μM substrate; for Turnover rate (per metabolizing P450 enzyme): per CYP3A4.
Target sequence in this assay (P08684 whole entry): as above
For data set [9] the following is noted: in vivo; cited from earlier work.
In data set [10] the test system is CYP3A4. The conditions noted are these: prolonged exposure; HepG2 cells; cited from earlier work.
Data set [11] relates to CYP3A4. As to conditions: prolonged exposure; human hepatocytes; cited from earlier work.
Setting [12] is: 25 μM ANF, all four HLM samples.

In [1], `O[C@@H](CS)[C@@H](O)CS` (racemic) [DTT, dithiothreitol] gave a pKd of 1.98.
On to `O=c1cc(-c2ccccc2)oc2c1ccc1ccccc12` [ANF, 7,8-benzoflavone], for which, in data set [2] (calculated from [CYP2E1]50%), the “(Lipid/CYP2E1)50%” value is 604 and 604 ± 62. Moreover, in [2] (from Rmax by Eq. 4), the “FRET Efficiency” value was 84 ± 20%. The “Effect of ANF on Vmax of BQ metabolism” value in [3] (25 μM ANF, HLM-A) is reported as “no statistically significant effect”; in data set [3] (25 μM ANF, HLM-N2), “no statistically significant effect”. Further, the “Effect of ANF on the maximal rate of BQ metabolism” value in data set [3] (25 μM ANF, HLM-N1) is “increased the maximal rate of reaction almost two times”; in data set [3] (25 μM ANF, HLM-N3), “over two-fold inhibition”. For the same molecule, the “Effect of ANF on S50 values of BQ” value in [3] (setting [12]) was “considerably decreased the S50 values”. Also, the “Effect of ANF on homotropic cooperativity observed with BQ” value in data set [3] (setting [12]) is given as “eliminated homotropic cooperativity”.
On to `CN(C)CCC=C1c2ccccc2CCc2ccccc21` [Amitriptyline], for which the Km in data set [4] was ~14 µM.
As to `c1ccc(COc2ccc3cccnc3c2)cc1` [BQ, 7-benzyloxyquinoline], the “N (Hill coefficient)” value in data set [3] (HLM-A+2E1 (1:1 CYP2E1-enriched), +25 μM ANF) is 0.85 ± 0.26 (0.03); in [3] (HLM-A+2E1 (1:1 CYP2E1-enriched), no effector), 1.47 ± 0.30 (0.30); in [3] (HLM-A, +25 μM ANF), 0.99 ± 0.20 (0.03); in data set [3] (HLM-A, no effector), 1.02 ± 0.15; in data set [3] (HLM-N1+2E1 (1:1 CYP2E1-enriched), +25 μM ANF) it was 0.87 ± 0.16 (0.02); in data set [3] (HLM-N1+2E1 (1:1 CYP2E1-enriched), no effector) it was 1.26 ± 0.12 (0.01). Moreover, the “N (Hill coefficient)” value in data set [3] (HLM-N1, +25 μM ANF) is on record as 0.83 ± 0.12 (<10^−2); in [3] (HLM-N1, no effector), 2.24 ± 0.37; in [3] (HLM-N2+2E1 (1:1 CYP2E1-enriched), +25 μM ANF) it was 0.86 ± 0.08 (<10^−2); in data set [3] (HLM-N2+2E1 (1:1 CYP2E1-enriched), no effector), 1.13 ± 0.03 (<10^−6); in data set [3] (HLM-N2, +25 μM ANF), 1.02 ± 0.37 (0.01); in [3] (HLM-N2, no effector), 1.92 ± 0.02. The “N (Hill coefficient)” value in [3] (HLM-N3+2E1 (1:1 CYP2E1-enriched), +25 μM ANF) was 1.02 ± 0.24 (0.07); in data set [3] (HLM-N3+2E1 (1:1 CYP2E1-enriched), no effector) it was 1.28 ± 0.09 (0.01); in [3] (HLM-N3, +25 μM ANF) it was 1.22 ± 0.30 (0.03); in data set [3] (HLM-N3, no effector), 2.09 ± 0.44. Further, the “Vmax, times lower than that of HLM-A” value in [3] (HLM-N2, no effector) came to 2.2 times; in data set [3] (HLM-N3, no effector), 1.4 times. The Hill coefficient in data set [3] (all three samples of HLM-N, no effector) was 1.9 – 2.2. Also, the “Vmax of HLM-A relative to HLM-N1” value in data set [3] (no effector) is “over six times higher”. For the same molecule, the “Turnover number with BQ, times lower than that of CYP3A4” value in data set [5] is 8.5 times; in data set [6] it was 4.3 times. For the same molecule, the “Ability of CYP2E1 to metabolize BQ” value in [7] was “lacks any potential to metabolize this substrate”.
In the case of `Cc1ncc2n1-c1ccc(Cl)cc1C(c1ccccc1F)=NC2` [Midazolam], the figures for the “Turnover rate (per CPR)” value in data set [8] (HLM-A), in data set [8] (HLM-N2) and in data set [8] (HLM-N3) were 11.2 ± 5.3 min⁻¹, 7.3 ± 2.1 min⁻¹ and 8.2 ± 4.0 min⁻¹, respectively. For the same molecule, the results for the “Turnover rate (per metabolizing P450 enzyme)” value in [8] (HLM-A), in data set [8] (HLM-N2) and in [8] (HLM-N3) were 6.8 ± 3.2 min⁻¹, 3.3 ± 0.9 min⁻¹ and 3.1 ± 1.5 min⁻¹, respectively.
Regarding `C[C@H]1c2cccc(O)c2C(O)=C2C(=O)[C@]3(O)C(O)=C(C(N)=O)C(=O)[C@@H](N(C)C)[C@@H]3[C@@H](O)[C@@H]21` [doxycyclin], the “Rate of metabolism under the influence of chronic alcohol exposure” value in data set [9] was “increased rate of metabolism”.
`CCO` [ethanol]: the “Concentration of ethanol giving a noticeable elevation in the CYP3A4 content” value in data set [10] and in [11] was ≥ 50000 µM in each case.
